In publication PMC4628008, “Characterization of Lactobacillus salivarius alanine racemase: short-chain carboxylate-activation and the role of A131” (SpringerPlus, 2015):

T1: L. salivarius alanine racemase (ALR) (Ligilactobacillus salivarius, UniProt Q1WV14)
T1 construct: full-length ORF in pET-28a (NdeI/XhoI, own stop codon), N-terminal His tag, tag kept; E. coli BL21-CodonPlus(DE3)-RIPL
T1 sequence (Q1WV14 1-371): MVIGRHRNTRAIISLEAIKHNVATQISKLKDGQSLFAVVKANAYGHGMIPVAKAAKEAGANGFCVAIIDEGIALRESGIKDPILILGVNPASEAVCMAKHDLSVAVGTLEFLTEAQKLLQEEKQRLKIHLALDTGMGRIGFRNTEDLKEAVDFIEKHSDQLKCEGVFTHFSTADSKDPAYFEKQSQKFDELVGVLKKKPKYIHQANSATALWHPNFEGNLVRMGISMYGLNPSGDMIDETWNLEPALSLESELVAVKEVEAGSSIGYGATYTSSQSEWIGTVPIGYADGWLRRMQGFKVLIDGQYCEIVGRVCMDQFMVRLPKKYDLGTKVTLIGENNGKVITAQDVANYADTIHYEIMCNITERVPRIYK


Legend:
[1] = target: T2, L. salivarius alanine racemase (ALR) (Ligilactobacillus salivarius, UniProt Q1WV14, A131K); test: UPLC activity assay; format: biochemical; details: 20 mM L-alanine; 0.05 mM PLP; pH 7.0 (MES), 30 °C
T2 construct: full-length ORF in pET-28a (NdeI/XhoI, own stop codon), N-terminal His tag, tag kept; E. coli BL21-CodonPlus(DE3)-RIPL

[2] = target: T1, L. salivarius alanine racemase (ALR); test: UPLC activity assay; format: biochemical; details: 20 mM L-alanine; 0.05 mM PLP; pH 7.0 (MES), 30 °C
[3] = target: T1, L. salivarius alanine racemase (ALR); test: UPLC activity assay; format: biochemical; details: 20 mM L-alanine; 0.05 mM PLP; pH 7.0 (MES), 30 °C; activator
[4] = substrate: C[C@H](N)C(=O)O; test: purified protein; details: no acetate, 0.05 mM PLP, pH 7.0 (MES), 30 °C

Molecule	relative activity at 1 mM (inhibition) [1]	relative activity at 1 mM (inhibition) [2]	relative activity at 1 mM (activation) [3]	Km [4] [mM]
CC(O)C(=O)O (racemic) [D, L-lactate]	ALR and ALR^A131K were both inhibited by D, L-lactate	ALR and ALR^A131K were both inhibited by D, L-lactate		
CCC(=O)O [propionate]	both propionate and butyrate strongly inhibited ALR^A131K		they strongly activated L. salivarius ALR	
CC(=O)C(=O)O [pyruvate]	succinate, pyruvate, 2-oxoglutarate, oxaloacetate and aspartate also more strongly inhibited ALR^A131K than ALR			
O=C(O)CC(=O)C(=O)O [oxaloacetate]	succinate, pyruvate, 2-oxoglutarate, oxaloacetate and aspartate also more strongly inhibited ALR^A131K than ALR			
CCCC(=O)O [butyrate]	both propionate and butyrate strongly inhibited ALR^A131K		they strongly activated L. salivarius ALR	
L. salivarius alanine racemase (ALR) (Ligilactobacillus salivarius UCC118) (protein) MVIGRHRNTRAIISLEAIKHNVATQISKLKDGQSLFAVVKANAYGHGMIPVAKAAKEAGANGFCVAIIDEGIALRESGIKDPILILGVNPASEAVCMAKHDLSVAVGTLEFLTEAQKLLQEEKQRLKIHLALDTGMGRIGFRNTEDLKEAVDFIEKHSDQLKCEGVFTHFSTADSKDPAYFEKQSQKFDELVGVLKKKPKYIHQANSATALWHPNFEGNLVRMGISMYGLNPSGDMIDETWNLEPALSLESELVAVKEVEAGSSIGYGATYTSSQSEWIGTVPIGYADGWLRRMQGFKVLIDGQYCEIVGRVCMDQFMVRLPKKYDLGTKVTLIGENNGKVITAQDVANYADTIHYEIMCNITERVPRIYK				11.5
L. salivarius alanine racemase (ALR) (Ligilactobacillus salivarius UCC118; A131K) (protein) MVIGRHRNTRAIISLEAIKHNVATQISKLKDGQSLFAVVKANAYGHGMIPVAKAAKEAGANGFCVAIIDEGIALRESGIKDPILILGVNPASEAVCMAKHDLSVAVGTLEFLTEAQKLLQEEKQRLKIHLKLDTGMGRIGFRNTEDLKEAVDFIEKHSDQLKCEGVFTHFSTADSKDPAYFEKQSQKFDELVGVLKKKPKYIHQANSATALWHPNFEGNLVRMGISMYGLNPSGDMIDETWNLEPALSLESELVAVKEVEAGSSIGYGATYTSSQSEWIGTVPIGYADGWLRRMQGFKVLIDGQYCEIVGRVCMDQFMVRLPKKYDLGTKVTLIGENNGKVITAQDVANYADTIHYEIMCNITERVPRIYK				9.20
